# Measurements from patent US6369030B1, “Inhibitors of histone acetyltransferases (HATs) and uses thereof” (The Rockfeller University, priority 1999, dated 2002).
# “And” between values parts separate entries of the source, which are not always exact repeats. Equal values may be shown once. Read-outs that look alike come from different tables or passages of the source. Residues, ends and D or L forms follow the SMILES beside them. *: point of attachment. CoASCH2CO = CC(C)(COP(=O)(O)OP(=O)(O)OC[C@H]1O[C@@H](n2cnc3c(N)ncnc32)[C@H](O)[C@@H]1OP(=O)(O)O)[C@@H](O)C(=O)NCCC(=O)NCCSCC(=O)*
# What was measured:
# p300 [1] = target: T1, p300 (Homo sapiens, UniProt Q09472); experiment: HAT activity inhibition assay, p300, mixed histones as substrate; type: biochemical
# T1 construct: Full length PCAF and p300 proteins were prepared and purified according to previously described methods; made in house
# T1 sequence (Q09472 whole entry): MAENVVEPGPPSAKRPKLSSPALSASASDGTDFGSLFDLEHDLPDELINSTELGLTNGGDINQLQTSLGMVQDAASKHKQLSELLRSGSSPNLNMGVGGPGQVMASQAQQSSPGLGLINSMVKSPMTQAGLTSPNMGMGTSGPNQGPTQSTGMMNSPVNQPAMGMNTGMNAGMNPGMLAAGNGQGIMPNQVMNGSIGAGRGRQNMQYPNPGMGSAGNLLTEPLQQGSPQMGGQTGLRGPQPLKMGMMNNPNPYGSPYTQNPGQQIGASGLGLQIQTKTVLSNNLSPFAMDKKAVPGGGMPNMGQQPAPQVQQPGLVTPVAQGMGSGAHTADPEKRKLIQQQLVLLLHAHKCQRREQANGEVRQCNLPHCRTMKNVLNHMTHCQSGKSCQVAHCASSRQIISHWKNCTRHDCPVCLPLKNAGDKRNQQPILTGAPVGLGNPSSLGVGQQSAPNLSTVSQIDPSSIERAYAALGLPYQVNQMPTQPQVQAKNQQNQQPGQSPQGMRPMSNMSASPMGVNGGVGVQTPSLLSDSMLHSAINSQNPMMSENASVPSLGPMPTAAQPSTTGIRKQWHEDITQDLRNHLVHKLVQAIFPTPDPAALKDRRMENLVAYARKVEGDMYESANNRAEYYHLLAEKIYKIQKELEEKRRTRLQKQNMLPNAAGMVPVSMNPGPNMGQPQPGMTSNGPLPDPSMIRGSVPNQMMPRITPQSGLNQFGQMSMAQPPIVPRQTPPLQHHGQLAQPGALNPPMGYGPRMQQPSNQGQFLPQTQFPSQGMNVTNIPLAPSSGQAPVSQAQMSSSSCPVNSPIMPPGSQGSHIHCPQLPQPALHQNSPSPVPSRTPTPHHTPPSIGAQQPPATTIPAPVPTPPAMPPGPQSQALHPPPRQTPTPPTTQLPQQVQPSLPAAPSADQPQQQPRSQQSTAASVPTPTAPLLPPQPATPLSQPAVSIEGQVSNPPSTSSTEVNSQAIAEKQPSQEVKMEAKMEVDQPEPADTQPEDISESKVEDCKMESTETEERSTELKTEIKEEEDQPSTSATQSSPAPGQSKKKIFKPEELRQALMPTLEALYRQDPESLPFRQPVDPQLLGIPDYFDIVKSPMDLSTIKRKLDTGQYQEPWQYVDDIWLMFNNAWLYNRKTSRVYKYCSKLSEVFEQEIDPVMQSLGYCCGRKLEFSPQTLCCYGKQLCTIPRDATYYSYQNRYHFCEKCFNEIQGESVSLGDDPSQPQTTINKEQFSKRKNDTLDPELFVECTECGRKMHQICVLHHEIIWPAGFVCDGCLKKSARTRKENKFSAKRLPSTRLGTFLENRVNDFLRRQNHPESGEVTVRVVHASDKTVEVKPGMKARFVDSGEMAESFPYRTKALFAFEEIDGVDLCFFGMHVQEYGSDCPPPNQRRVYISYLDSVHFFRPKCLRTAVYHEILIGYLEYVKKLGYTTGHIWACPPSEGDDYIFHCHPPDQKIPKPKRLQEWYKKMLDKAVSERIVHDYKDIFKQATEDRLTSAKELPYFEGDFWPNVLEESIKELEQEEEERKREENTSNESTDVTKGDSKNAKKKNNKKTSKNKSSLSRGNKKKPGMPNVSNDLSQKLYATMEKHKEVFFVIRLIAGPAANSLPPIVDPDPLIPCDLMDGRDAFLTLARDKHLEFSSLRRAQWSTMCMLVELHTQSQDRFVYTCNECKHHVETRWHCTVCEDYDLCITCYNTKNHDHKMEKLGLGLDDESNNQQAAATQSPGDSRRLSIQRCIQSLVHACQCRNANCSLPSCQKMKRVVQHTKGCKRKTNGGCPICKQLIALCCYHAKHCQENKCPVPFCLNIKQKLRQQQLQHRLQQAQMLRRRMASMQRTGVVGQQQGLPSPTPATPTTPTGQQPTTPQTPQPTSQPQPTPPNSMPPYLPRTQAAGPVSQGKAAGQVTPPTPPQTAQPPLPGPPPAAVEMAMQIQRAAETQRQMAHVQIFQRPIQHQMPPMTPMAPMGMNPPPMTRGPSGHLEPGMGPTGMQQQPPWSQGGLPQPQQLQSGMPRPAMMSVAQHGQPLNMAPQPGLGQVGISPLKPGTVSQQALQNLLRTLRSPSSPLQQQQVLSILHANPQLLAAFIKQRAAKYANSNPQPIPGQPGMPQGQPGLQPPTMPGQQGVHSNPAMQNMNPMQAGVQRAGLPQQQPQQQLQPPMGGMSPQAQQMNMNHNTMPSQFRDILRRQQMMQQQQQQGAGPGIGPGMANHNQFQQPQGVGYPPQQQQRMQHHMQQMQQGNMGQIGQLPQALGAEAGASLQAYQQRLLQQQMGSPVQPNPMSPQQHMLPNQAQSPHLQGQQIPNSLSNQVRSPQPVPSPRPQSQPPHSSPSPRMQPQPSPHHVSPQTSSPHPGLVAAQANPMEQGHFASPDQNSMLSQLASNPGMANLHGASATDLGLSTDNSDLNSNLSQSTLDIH
# Protocol: (§1) Screening of the peptide CoA conjugate for inhibition of HAT activity of PCAF and p300 was carried out according to standard HAT assay procedures (Ogryzko et al., 1996; Yang et al., 1996; Schiltz et al., 1999) using commercially available mixed calf histone substrates. […] Full length PCAF and p300 proteins were prepared and purified according to previously described methods (Schiltz et al., 1999). HAT inhibition assay procedures were adapted from previously described methods (gryzko et al., 1996; Yang et al., 1996; Schiltz et al., 1999). Briefly, substrate concentrations were 10 μM acetyl-CoA (NEN, ^14C, 0.02 μCi/μL), 33 μg/mL mixed histones (Boehringer); buffer conditions-50 mM Tris-HCl (pH 8), 10 mM sodium butyrate 1 mM phenylmethyl sulfonyl fluoride, 1 mM dithiothreitol, 0.1 mM N,N,N′,N′-ethylenediamine tetraacetic acid and 10% v/v glycerol. Reactions employed purified recombinant p300 and PCAF (Schiltz et al., 1999) at concentrations of 6 nM and 27 nM, respectively. A range of at least 5 inhibitor concentrations were used. Assays were carried out in 0.5 mL plastic tubes at 30° C. and the reaction volumes were 30 μL. Reactions were initiated with the radioactive acetyl-CoA (4 μL) after allowing the enzyme/buffer/histone/inhibitor mixture to equilibrate at 30° C. for 10 min, and reactions quenched after 1 min with 7.5 μL 5×SDS gel load. Mixtures were run out on 15% SDSPAGE visualized with Coomassie blue, dried, and radioactivity quantified by phosphorimage analysis (Molecular Dynamics). In all cases, background acetylation (in the absence of enzyme) was subtracted from the total signal.
# PCAF [2] = target: T2, PCAF (Homo sapiens, UniProt Q92831); experiment: HAT activity inhibition assay, PCAF, mixed histones as substrate; type: biochemical; settings: for IC50: [acetyl-CoA]=10 M, [mixed histones]=33 μg/mL, standard errors estimated ±20%
# T2 construct: Full length PCAF and p300 proteins were prepared and purified according to previously described methods; made in house
# T2 sequence (Q92831 whole entry): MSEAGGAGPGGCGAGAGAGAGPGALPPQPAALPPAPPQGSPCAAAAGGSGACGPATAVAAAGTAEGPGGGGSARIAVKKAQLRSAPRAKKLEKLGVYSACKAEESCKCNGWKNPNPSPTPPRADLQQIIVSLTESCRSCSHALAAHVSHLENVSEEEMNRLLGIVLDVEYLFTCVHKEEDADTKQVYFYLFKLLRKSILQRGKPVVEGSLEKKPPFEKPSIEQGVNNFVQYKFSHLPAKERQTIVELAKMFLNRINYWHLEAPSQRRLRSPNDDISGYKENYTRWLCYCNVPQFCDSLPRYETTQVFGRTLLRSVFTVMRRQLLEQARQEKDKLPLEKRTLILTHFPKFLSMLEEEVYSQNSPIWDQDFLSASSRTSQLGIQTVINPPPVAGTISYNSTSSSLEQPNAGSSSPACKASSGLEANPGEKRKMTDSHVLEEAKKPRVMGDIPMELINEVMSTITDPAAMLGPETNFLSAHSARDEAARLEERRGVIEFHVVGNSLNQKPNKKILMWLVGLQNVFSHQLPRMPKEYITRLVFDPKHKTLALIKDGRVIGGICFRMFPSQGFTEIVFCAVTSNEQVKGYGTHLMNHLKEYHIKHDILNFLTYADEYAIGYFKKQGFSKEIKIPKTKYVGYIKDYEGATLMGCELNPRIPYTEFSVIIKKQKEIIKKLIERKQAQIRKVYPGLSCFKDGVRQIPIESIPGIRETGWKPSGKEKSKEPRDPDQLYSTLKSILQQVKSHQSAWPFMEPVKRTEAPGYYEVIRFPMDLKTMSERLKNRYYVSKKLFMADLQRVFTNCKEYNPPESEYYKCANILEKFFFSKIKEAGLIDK
# Protocol: as §1
# p300 [3] = target: T1, p300; experiment: HAT inhibition assay, p300, nucleosomes as substrate; type: biochemical; settings: inhibitor 20 μM
# Protocol: (§2) Full length PCAF and p300 proteins were prepared and purified according to previously described methods (Schiltz et al., 1999). HAT inhibition assay procedures were adapted from previously described methods (gryzko et al., 1996; Yang et al., 1996; Schiltz et al., 1999). […] Reactions employed purified recombinant p300 and PCAF (Schiltz et al., 1999) at concentrations of 6 nM and 27 nM, respectively. A range of at least 5 inhibitor concentrations were used. Assays were carried out in 0.5 mL plastic tubes at 30° C. and the reaction volumes were 30 μL. Reactions were initiated with the radioactive acetyl-CoA (4 μL) after allowing the enzyme/buffer/histone/inhibitor mixture to equilibrate at 30° C. for 10 min, and reactions quenched after 1 min with 7.5 μL 5×SDS gel load. Mixtures were run out on 15% SDSPAGE visualized with Coomassie blue, dried, and radioactivity quantified by phosphorimage analysis (Molecular Dynamics). In all cases, background acetylation (in the absence of enzyme) was subtracted from the total signal.
# (§3) 3) FIG. 3. Assessment of p300 and PCAF HAT Activities in p300/PCAF Mixtures. (A) p300 and PCAF HAT activities with mixed histones as substrates.
# PCAF [4] = target: T2, PCAF; type: biochemical; settings: nucleosomes as substrate, inhibitor 20 μM
# Protocol: as §2, §3
# [5] = test system: p300 and acetyl-CoA dependent transcription from chromatin template; experiment: In vitro chromatin-template transcription dependent on p300 HAT activity; type: biochemical, human
# Protocol: (§4) FIG. 4B and C: Transcription from naked DNA and chromatin templates. DNA (28 ng) and freshly assembled chromatin templates (with an equivalent amount of DNA) were incubated with or without activator, Gal4-VP16 (30 ng) for 20 min at 30° C.; 25 ng of baculovirus expressed, highly purified p300 (full length) and 1.5 μM of acetyl-CoA were added as indicated. Following the addition of nuclear extract (source of general transcription factors) and NTPs, transcription reactions were incubated and processed as described.
# The chromatin template was reconstituted by incubation of purified proteins (HeLa core histones, NAP1 and rh TopoI) with a 5.4 kb plasmid (p20855G5MLC2AT) that contains a 690 bp promoter region (5 Gal4 binding sites and the adenovirus major late promoter with a G-less cassette) flanked on both sides by the 5 nucleosome positioning sequence from the sea urchin 55 rRNA gene (Cote et al., 1995). Assembled chromatin was structurally characterized by supercoiling and micrococcal nuclease (MNase) assay (data not shown).
# Chromatin template for transcription studies were assembled on a ˜5.4 kb plasmid (p2085S G5MLC2AT) with purified human core histones, rh TpopI, and NAP1 as described (T. K. K. et al., manuscript in preparation). Prior to use in the transcription experiment, assembled, chromatin was subjected to supercoiling and Mnase assay. […]
# naked DNA transcription = experiment: In vitro transcription from naked DNA template; type: biochemical; settings: 10 μM inhibitor; average of 4 independent experiments
# Protocol: as §4
# Recombinant His6-tagged nucleosome assembly protein 1 (NAP1) and transcription activator Gal4-VP16 were expressed in E. coli and purified with nitrilloacetic acid-agarose (Qiagen) as specified by the manufacturer. […] In vitro transcription assays were carried out in 50 μL reaction mixtures containing either 28 ng of DNA or an equivalent amount of chromatin.
# (A) Outline of the in vitro transcription protocol. (B) and (C) Transcription form naked DNA and chromatin templates. DNA (28 ng) and freshly assembled chromatin templates (with an equivalent amount of DNA) were incubated with or without activator, Gal4-VP16 (30 ng) for 20 min at 30°, 25 ng of baculovirus expressed, highly purified p300 (full length) and 1.5 μM of acetyl-CoA were added as indicated. […]
# [6] = [acetyl-CoA]=10 M, [mixed histones]=33 μg/mL, standard errors estimated ±20%, read-out: IC50 with p300
# [7] = mixed histones, individual enzyme, inhibitor 20 μM
SMILES,"inhibition of p300 HAT activity, in words (p300 [1]; mixed histones)",IC50 (PCAF [2]),"inhibition of PCAF HAT activity, in words (PCAF [2]; mixed histones)",IC50 (p300 [1]; [6]),selectivity in blocking p300 HAT activity (versus PCAF) (p300 [1]),"IC50 (p300 [1]; mixed calf histone substrates, read-out: IC50 of p300 acetyltransferase activity)",p300 HAT activity blocked (p300 [1]; [7]),inhibition with PCAF (PCAF [2]; [7]),p300 inhibition (nucleosome acetylation) (p300 [3]),PCAF inhibition (nucleosome acetylation) (PCAF [4]),"transcriptional activation from chromatin template in the presence of p300-PCAF mixtures ([5]; p300-PCAF mixtures, data not shown)",inhibition of p300 and acetyl-CoA dependent transcription activation from the chromatin template ([5]; p300 preincubated with 10 μM inhibitor),inhibition of naked DNA transcription (naked DNA transcription)
"CC(C)(COP(=O)(O)OP(=O)(O)OC[C@H]1O[C@@H](n2cnc3c(N)ncnc32)[C@H](O)[C@@H]1OP(=O)(O)O)[C@@H](O)C(=O)NCCC(=O)NCCS [CoASH, reference compound]",Neither the H3-20 peptide (which lacked CoA attachment) nor CoASH itself were potent HAT inhibitors,> 20000 nM,Neither the H3-20 peptide (which lacked CoA attachment) nor CoASH itself were potent HAT inhibitors,–,–,–,–,–,–,–,–,–,–
CC(=O)NCC(=O)NCC(=O)N[C@@H](CCCCNC(=O)CSCCNC(=O)CCNC(=O)[C@H](O)C(C)(C)COP(=O)(O)OP(=O)(O)OC[C@H]1O[C@@H](n2cnc3c(N)ncnc32)[C@H](O)[C@@H]1OP(=O)(O)O)C(=O)N[C@@H](C)C(=O)N1CCC[C@H]1C(=O)N[C@@H](CCCNC(=N)N)C(=O)N[C@@H](CCCCN)C(N)=O [Compound H3-CoA-7] (Ac-GGK(CoASCH2CO)APRK-NH2),–,> 20000 nM,not achieved,> 30000 nM,–,–,–,–,–,–,–,–,–
CC(=O)N[C@@H](CCCCNC(=O)CSCCNC(=O)CCNC(=O)[C@H](O)C(C)(C)COP(=O)(O)OP(=O)(O)OC[C@H]1O[C@@H](n2cnc3c(N)ncnc32)[C@H](O)[C@@H]1OP(=O)(O)O)C(N)=O [Lys-CoA],–,~200000 nM,–,~500 nM and 500 nM,~200 fold,~500 nM,greater than 90%,less than 10%,greater than 90%,less than 10%,abolished transcriptional activation,completely abolished,15-20%
